Assay results reported in patent US11063221B2, “Materials for electronic devices” (Merck Patent GmbH, priority 2014, dated 2021).
Values after ≈ are worked out from the molar mass of the structure shown. One block for each compound: values may come before it.

Test: Solubility of host materials (Table 4, solution-processed OLEDs)
Type: physicochemical
Details: for Solubility: host material, solvent not given (emission-layer mixture is dissolved in toluene)

Compound: Cc1c2ccccc2cc2c1ccc1c(-c3c4ccccc4c(-c4ccccc4)c4ccccc34)cccc12 [H-1]
- Solubility: 40 mg/mL (≈ 80.9 mM)

Compound: CC(C)Cc1c2ccccc2cc2c1ccc1c(-c3c4ccccc4c(-c4ccccc4)c4ccccc34)cccc12 [H-2]
- Solubility: 45 mg/mL (≈ 83.8 mM)

Compound: c1ccc(-c2cc(-c3ccccc3)cc(-c3c4ccccc4c(-c4cccc5c4ccc4cc6ccccc6cc45)c4ccccc34)c2)cc1 [VH-1]
- Solubility: 70 mg/mL (≈ 111 mM)

Compound: c1ccc(-c2c3ccccc3c(-c3cccc4c3ccc3cc5ccccc5cc34)c3ccccc23)cc1 [VH-3]
- Solubility / processability from solution (in words) (Example V8): cannot be processed from solution at all owing to the low solubility
- Solubility: <1 mg/mL

- Solubility: 44 mg/mL (≈ 102 mM)
Compound: c1ccc2cc(-c3c4ccccc4c(-c4cccc5ccccc45)c4ccccc34)ccc2c1 [VH-4]
